Data as given in patent US9527819B2, “Pyridazine compounds, compositions and methods” (NORTHWESTERN UNIVERSITY, priority 2004, dated 2016).

Experiments:
hERG K+ channel = biological target: T1, hERG K+ channel (Homo sapiens, UniProt Q12809); assay: hERG channel activity patch clamp inhibition assay; assay type: cell-based; conditions: three concentrations (0.1, 1, 10 μM), whole cell patch clamp
T1 construct: MDS PharmaService (commercial assay service)
From the text: The hERG channel activity inhibition assay provides whole cell electrophysiological data about compound effects on the hERG K^+ channel function. Whole cell patch clamp methodology is generally considered to be the gold-standard determination of ion channel activity, rather than simply measuring channel binding. The standard testing procedure is to use 3 to 5 concentrations of compound at log dilutions with each concentration tested in triplicate (three cells). This allows a balance between achieving a reasonably accurate IC50 measurement against a broad concentration range, and reducing cell attrition that would occur during more protracted experiment durations. After completion of compound dose-response procedures, a known hERG channel inhibitor, such as astemizole, is applied as a positive control.

[1] = test system: BV-2 mouse microglial cells; assay: LPS-stimulated proinflammatory cytokine production in BV-2 microglial cell culture assay; assay type: cell-based; conditions: for IL-1β production / TNFα production: LPS 100 ng/ml, 16 hrs, levels in cell lysates
Experimental: EL-1/3 and TNFa levels in cell lysates were determined by electro-chemiluminescent detection in a Meso-Scale Discovery (MSD) kit, as per the manufacturer's instructions.
Data are the mean+/− SEM of triplicate determinations.

[2] = test system: Aβ-infused mice (hippocampus); assay: Human Aβ infusion mouse model of neuroinflammation and neuronal injury; assay type: in vivo
From the text: Briefly, oligomeric […] was infused ICV for 28 days with a micro-osmotic pump. […] At post-operative day 60, mice were perfused and sacrificed, and hippocampal endpoints measured as previously described. Endpoint assays included immunohistochemical detection of activated astrocytes and microglia by glial fibrillary acidic protein (GFAP) and F4/80 staining, measurement of the levels of the pro-inflammatory cytokines IL-1|S, TNFa, and S100B by ELISA, and determination of synaptic damage by analysis of the levels of postsynaptic density protein-95 (PSD-95). […] Cultures were treated with control buffer, C, or activated in the absence, A, or presence, A+188, of 7.5 μMW01-5-188WH. […] Bar=125 μm. […] A schematic of the experimental paradigm is shown. […] Bars=25 μm. […] Quantification of amyloid burden from all mice (n=5/group) was done by determination of the amyloid load. Data are mean±SEM. […] (C) Spontaneous alternation of mice in the Y-maze, a hippocampus-dependent spatial learning task, was measured for 10 days during the 7th and 8th week after the start of Aβ infusion. Data are mean±SEM of n=5 or 10 per group.

[3] = Stability in liver microsomes; assay type: in vitro ADME, rat; conditions: 1 μM, NADPH-regenerating system, 37° C.
From the text: The HPLC system (Dionex Corp., Sunnyvale, Calif.) includes a Dionex […] pump, a Phenomenex Luna.

hERG = hERG (Homo sapiens, UniProt Q12809); assay: hERG competition binding assay (3H-astemizole); conditions: HEK-293 cells stably expressing recombinant hERG channels, probe 3H-astemizole
From the text: The initial assay is a radioligand binding assay that tests the ability of the test compound to compete with ^3H-astemizole (a reference standard that binds to hERG channels with nM affinity) for binding to recombinant hERG channels stably expressed on human HEK-293 cells. […] This is usual for medium throughout screens but is not recommended in the FDA document and tends to give false positives, as evidenced by the results reported below.

anesthetized guinea pigs = assay: Cardiac QT interval prolongation assay; assay type: in vivo, guinea pig; conditions: PO 15 mg/kg
Experimental: The QT interval studies are performed by evaluating compounds for effects on QT interval in Lead II electrocardiograms measured in anesthetized guinea pigs (Hirohashi et al., 1991), one of the species recommended in the FDA white paper. Vehicle or compound is administered orally at 15 mg/kg (dosing volume of 10 ml/kg) to groups of male guinea pigs (weighing 330-350 g), with 5 animals per group. […] Heart rate, arterial blood pressure, and QT intervals are measured at baseline, and at 15, 30, 45, and 60 min after compound administration. Sotalol administered iv at 0.3 mg/kg serves as the positive control compound. The QT intervals are corrected for changes in heart rate using both Bazett's and Fridericia's formulae. Any increase in QT interval values over baseline values exceeding the upper 95% confidence limit of the mean changes at the corresponding time point in the vehicle-treated control group for two consecutive observation times indicates significant QT interval prolongation in the individually treated animals.

[4] = Oral administration / brain uptake assay; conditions: mouse, in vivo
Experimental: At various times (0-60 min) after administration, mice were sacrificed, blood removed by cardiac puncture, and brains immediately harvested, weighed, quick-frozen in liquid nitrogen, and stored at −80° C. until assayed. Brain tissue was homogenized in 1.5 ml of 0.1 M perchloric acid. After centrifugation (12,000×g for 10 min), the supernatant was neutralized, with 1 M NaOH and then extracted three times with 2 ml of dichloromethane by centrifugation at 3,000×g for 5 min. The organic phases from the three successive extractions were pooled and then vaporated to dryness under reduced pressure. The dried sample was reconstituted in 100 ul of HPLC mobile phase (80% acetonitrile, 0.08% formic acid, 20% H2O), and 20 μl of the reconstituted material was injected into the HPLC system. […] A standard curve of the test compound was prepared by adding increasing concentrations of the compound to brain, tissue from untreated mice, then extracting the brains and performing HPLC analysis as described above. The area under the curve increased linearly with the concentration of the compound over the range of concentrations investigated, with a correlation coefficient of 0.99.

activated glia = assay: Western blots of iNOS, COX-2, apoE production in activated glia cultures; assay type: cell-based; conditions: 7.5 μM, western blot
Experimental: Cultures were treated with control buffer, C, or activated in the absence, A, or presence, A+188, of 7.5 μMW01-5-188WH. […] Bar=125 μm. […] A schematic of the experimental paradigm is shown. […] Bars=25 μm. […] Quantification of amyloid burden from all mice (n=5/group) was done by determination of the amyloid load. Data are mean±SEM. […] (C) Spontaneous alternation of mice in the Y-maze, a hippocampus-dependent spatial learning task, was measured for 10 days during the 7th and 8th week after the start of Aβ infusion. Data are mean±SEM of n=5 or 10 per group.

hERG, sequence (Q12809 whole entry): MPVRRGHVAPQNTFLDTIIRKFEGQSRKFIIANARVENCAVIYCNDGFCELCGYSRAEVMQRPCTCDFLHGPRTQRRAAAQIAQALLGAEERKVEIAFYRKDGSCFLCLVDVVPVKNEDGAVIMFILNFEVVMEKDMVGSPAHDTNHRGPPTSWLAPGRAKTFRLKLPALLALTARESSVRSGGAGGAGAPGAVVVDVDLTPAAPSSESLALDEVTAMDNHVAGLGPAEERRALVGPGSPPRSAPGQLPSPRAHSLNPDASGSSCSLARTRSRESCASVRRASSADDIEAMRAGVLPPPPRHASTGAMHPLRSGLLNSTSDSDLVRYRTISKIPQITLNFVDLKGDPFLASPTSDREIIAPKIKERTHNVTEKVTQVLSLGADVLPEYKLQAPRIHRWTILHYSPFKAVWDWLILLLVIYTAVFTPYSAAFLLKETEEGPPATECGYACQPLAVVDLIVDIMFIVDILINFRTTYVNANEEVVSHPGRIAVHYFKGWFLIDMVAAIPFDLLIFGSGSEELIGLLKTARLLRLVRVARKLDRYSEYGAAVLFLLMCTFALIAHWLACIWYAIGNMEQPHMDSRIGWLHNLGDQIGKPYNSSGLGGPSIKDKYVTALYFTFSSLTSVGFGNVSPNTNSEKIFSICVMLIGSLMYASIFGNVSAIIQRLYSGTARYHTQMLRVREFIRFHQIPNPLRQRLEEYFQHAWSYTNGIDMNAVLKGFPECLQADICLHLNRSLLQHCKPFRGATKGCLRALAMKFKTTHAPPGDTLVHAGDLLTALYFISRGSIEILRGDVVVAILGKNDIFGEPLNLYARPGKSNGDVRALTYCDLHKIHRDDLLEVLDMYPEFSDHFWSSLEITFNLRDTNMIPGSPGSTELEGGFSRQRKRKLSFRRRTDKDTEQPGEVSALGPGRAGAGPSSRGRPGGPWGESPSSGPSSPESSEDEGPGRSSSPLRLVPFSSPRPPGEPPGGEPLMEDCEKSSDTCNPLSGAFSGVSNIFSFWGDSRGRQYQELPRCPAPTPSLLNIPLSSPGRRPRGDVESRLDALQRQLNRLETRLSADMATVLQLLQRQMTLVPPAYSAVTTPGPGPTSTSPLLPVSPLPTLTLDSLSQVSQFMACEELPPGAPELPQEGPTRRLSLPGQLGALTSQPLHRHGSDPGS
T1 sequence (Q12809 whole entry): as above

| Structure (SMILES) | IC50 (hERG K+ channel) [µM] | IL-1β production [1] | inhibition at 10 µM (hERG) [%] | heart rate (anesthetized guinea pigs) | mean blood pressure (anesthetized guinea pigs) | TNFα production [1] | also measured |
| --- | --- | --- | --- | --- | --- | --- | --- |
| Cc1cc(-c2ccccc2)nnc1N1CCN(c2ncccn2)CC1 [MW01-2-151SRM, 4-methyl-6-phenyl-3-(4-pyrimidin-2-ylpiperazin-1-yl)pyridazine] | 9.21 | suppress IL-1β in a concentration dependent manner | 8 | no significant effects | no significant effects | – | activated glia responses [1]: selective suppressor; efficacy in the mouse model of human Aβ-induced neuroinflammation and neuronal injury ([2]; mouse, in vivo): showed efficacy; inflammatory response endpoints outside the brain ([2]; mouse, in vivo): did not suppress; stability in microsomes [3]: demonstrated; cardiac QT interval (anesthetized guinea pigs; baseline, 15, 30, 45, 60 min, vs mean+2 SD of vehicle control): Neither compound increased; oral availability [4]: orally available |
| c1ccc(-c2ccc(N3CCN(c4ncccn4)CC3)nn2)cc1 [MW01-3-183WH, 2-(4-(6-phenylpyridazin-3-yl)piperazin-1-yl)pyrimidine] | – | suppressed both IL-1β and TNFα production in a concentration dependent manner | – | – | – | suppressed both IL-1β and TNFα production in a concentration dependent manner | – |
| c1ccc(-c2cc(-c3ccccc3)c(N3CCN(c4ncccn4)CC3)nn2)cc1 [MW01-5-188WH, 4,6-diphenyl-3-(4-pyrimidin-2-ylpiperazin-1-yl)pyridazine] | – | concentration-dependent inhibition | 91 | no significant effects | no significant effects | concentration-dependent inhibition | Accumulation of the NO metabolite, nitrite ([1]; concentrations up to 33 μM): not inhibited; number of F4/80 positive microglia in the hippocampus ([2]; daily oral […] for 2 weeks): decreased; COX-2 production (activated glia): does not suppress; apoE production (activated glia): does not suppress; iNOS production (activated glia): does not suppress |
| Clc1cc(-c2ccccc2)nnc1N1CCN(c2ncccn2)CC1 [MW01-6-127WH, 4-chloro-6-phenyl-3-(4-pyrimidin-2-ylpiperazin-1-yl)pyridazine] | – | – | 19 | – | – | – | – |
| c1ccc(-c2cc(-c3ccncc3)c(N3CCN(c4ncccn4)CC3)nn2)cc1 [MW01-6-189WH, 4-pyridyl-6-phenyl-3-(4-pyrimidin-2-ylpiperazin-1-yl)pyridazine] | 4.81 | – | – | – | – | – | – |
